Measured values as given in article PMC6044451 (Journal of medicinal chemistry, 2018).

Tested on: HIV-1LAI
Assay: Antiviral activity in MT-2 human T-lymphoid cells exposed to HIV-1LAI
Assay type: cell-based

| Structure (SMILES) | improvement in antiviral activity compared to inhibitor 4b (MT-2 cells exposed to HIV-1LAI, versus 4b) [fold] | IC50 (Human immunodeficiency virus 1, MT2, in Homo sapiens, read-out: antiviral IC50) [µM] |
| --- | --- | --- |
| COc1ccc(S(=O)(=O)N(CC(C)C)C[C@@H](O)[C@H](Cc2ccccc2)NC(=O)O[C@H]2C[C@H]3CO[C@H]4OCC[C@@H]2[C@@H]34)cc1 [Inhibitor 4c, (2aR,2a^1R,4S,4aR,7aR)-Octahydro-2H-1,7-dioxacyclopenta[cd]inden-4-yl ((2S,3R)-3-hydroxy-4-((N-isobutyl-4-methoxyphenyl)sulfonamido)-1-phenylbutan-2-yl)carbamate] | 4 | – |
| CC(C)(C)NC(=O)[C@@H]1C[C@@H]2CCCC[C@@H]2CN1C[C@@H](O)[C@H](Cc1ccccc1)NC(=O)[C@H](CC(N)=O)NC(=O)c1ccc2ccccc2n1 [SQV, saquinavir] | – | 0.021 |
